Measured values: ChEMBL document CHEMBL1122732, “Vitamin K dependent carboxylation: synthesis and biological properties of tetrazolyl analogues of pentapeptidic substrates” (J Med Chem, 1984)

Experiments:
[1] = (§1) Compound were evaluated for its binding affinity against vitamin K dependent carboxylation
[2] = as §1; remark: listed apart in the source

Km [1] [µM] | Ki [2] [mM] | Compound
3000 | 3 | CC(C)C[C@H](NC(=O)[C@@H](N)Cc1ccccc1)C(=O)N[C@@H](CCC1N=NN=N1)C(=O)N[C@@H](CCC1N=NN=N1)C(=O)N[C@H](C(=O)O)C(C)C
 | 3.1 | CC(C)C[C@H](NC(=O)[C@@H](N)Cc1ccccc1)C(=O)N[C@@H](CCc1nn[nH]n1)C(=O)N[C@@H](CCc1nn[nH]n1)C(=O)N[C@H](C(=O)O)C(C)C
 | 20 | H-FLEEV-OH
